From patent US11951100B2, “Formulations of RBP4 inhibitors and methods of use” (Belite Bio, LLC, priority 2019, dated 2024)
Converted amounts (≈) assume the structure as drawn. “And” between values parts separate entries of the source, which are not always exact repeats. Equal entries are not always repeated. Where two headings read alike, the source gives them in different places.

Assays:
Format in all cases: physicochemical
[1] = Non-sink dissolution, 0.1N HCl then FaSSIF
Procedure: Sample of solid dispersions containing Compound 1 were analyzed in a non-sink dissolution experiment. Dispersion samples and neat Compound 1 were suspended in 0.1N HCl media at a concentration of 1000 ug/mL Compound 1. Concentration of each sample was then measured by centrifugation to pellet undissolved material, and an aliquot of the supernatant was assessed by HPLC for concentration. Material was then agitated in a Distek 2100 C Dissolution apparatus, USP Type II. Instrument was operated according to standard instrument procedures provided by manufacturer. Parameters used for the experiment are shown below in Table 11. After 30 minutes, the media was modulated to FaSSIF by adding equivalent volume of FaSSIF buffer with bile salts, bringing the theoretical concentration of compound 1 to 500 μg/mL. Dissolved concentration of Compound 1 in each sample was then assessed periodically by HPLC. […] These resulting values can be seen in Table 12 below.

[2] = DSC of crystalline Compound 1; details: ramp 10.0° C./min, 35° C.-275° C.
Procedure: A sample of Compound 1 was analyzed by Differential Scanning Calorimetry using a TA Discovery DSC2500 with RCS90 chiller according to standard instrument procedures provided by manufacturer. Parameters used for the analysis are shown below in Table 3. Two replicates of the experiment were run with reproducible results. The resulting thermogram, shown in FIG. 10B, indicated a melting temperature (Tm) of Compound 1 of about 229° C. and no degradation up to 275° C.

[3] = MDSC of spray dried solid dispersions; details: n = 3
Procedure: Samples of the solid dispersions containing Compound 1 were analyzed by Differential Scanning Calorimetry using a TA Discovery DSC2500 with RCS90 chiller according to standard instrument procedures provided by manufacturer. Parameters used for the analysis are shown below in Table 9. Three replicates of the experiment were run for each dispersion.

[4] = Equilibrium solubility by HPLC, Form C, ambient temperature; details: for solubility: thermodynamic from solid
Procedure: […] (as a part of feasibility assessment of liquid dosage form in formulation development and dissolution method development), a number of […] […] The equilibrated suspensions were isolated by centrifuge and the filtrates were injected into HPLC to determine equilibrium solubility of the API in each solvent system.

- AUC 5-180 IB ([1]; FaSSIF): 1300 min*μgA/mL
- C210 ([1]; final concentration): 7.1 μgA/mL
- no degradation up to (DSC) [2]: 275 °C
- Tg [3]: 93.4 °C
- Tg Onset [3]: 89.4 °C
- solubility ([4]; Canola Oil, oil or lipid, Canola Oil, read-out: Solubility by HPLC): 31 µg/mL (≈ 67.9 µM)
- solubility ([4]; Capmul MCM, EP, oil or lipid, Capmul MCM, EP, read-out: Solubility by HPLC): 3900 µg/mL (≈ 8540 µM)
- solubility ([4]; Capmul MCM, NF, oil or lipid, Capmul MCM, NF, read-out: Solubility by HPLC): 4400 µg/mL (≈ 9640 µM)
- solubility ([4]; Captex 300, EP/NF, oil or lipid, Captex 300, EP/NF, read-out: Solubility by HPLC): 64 µg/mL (≈ 140 µM)
- solubility ([4]; Captex 355, EP/NF, oil or lipid, Captex 355, EP/NF, read-out: Solubility by HPLC): 49 µg/mL (≈ 107 µM)
- solubility ([4]; Castor Oil, oil or lipid, Castor Oil, read-out: Solubility by HPLC): 990 µg/mL (≈ 2170 µM)
- solubility ([4]; Corn Oil, oil or lipid, Corn Oil, read-out: Solubility by HPLC): 31 µg/mL (≈ 67.9 µM)
- solubility ([4]; FaSSIF, pH 4.96, fassif, FaSSIF, Final pH: 4.96, read-out: Solubility by HPLC): 39 µg/mL (≈ 85.4 µM)
- solubility ([4]; FaSSIF, pH 4.99, fassif, FaSSIF, Final pH: 4.99, read-out: Solubility by HPLC): 47 µg/mL (≈ 103 µM)
- solubility ([4]; FaSSIF, pH 6.77, fassif, FaSSIF, Final pH: 6.77, read-out: Solubility by HPLC): 5.1 µg/mL (≈ 11.2 µM)
- solubility ([4]; FaSSIF, pH 6.78, fassif, FaSSIF, Final pH: 6.78, read-out: Solubility by HPLC): 3.2 µg/mL (≈ 7.01 µM)
- solubility ([4]; Gelucire 44/14 1 mg/mL (500× cmc), aqueous with cosolvent or surfactant or cyclodextrin, Gelucire 44/14, 1 mg/mL (500× cmc), read-out: Solubility by HPLC): 0.8 µg/mL (≈ 1.75 µM)
- solubility ([4]; Kolliphor HS-15, 35 °C, organic solvent or mixture, Kolliphor HS-15, Stirred at 35° C., read-out: Solubility by HPLC): 2800 µg/mL (≈ 6130 µM)
- solubility ([4]; Kolliphor P188 0.4 mM (3.2× cmc), aqueous with cosolvent or surfactant or cyclodextrin, Kolliphor P188, 0.4 mM (3.2× cmc), read-out: Solubility by HPLC): 1.6 µg/mL (≈ 3.51 µM)
- solubility ([4]; Kolliphor P188 4 mM (32× cmc), aqueous with cosolvent or surfactant or cyclodextrin, Kolliphor P188, 4 mM (32× cmc), read-out: Solubility by HPLC): 3.1 µg/mL (≈ 6.79 µM)
- solubility ([4]; Labrafil M1944CS, oil or lipid, Labrafil M1944CS, read-out: Solubility by HPLC): 280 µg/mL (≈ 613 µM)
- solubility ([4]; Labrasol, oil or lipid, Labrasol, read-out: Solubility by HPLC): 1700 µg/mL (≈ 3720 µM)
- solubility ([4]; Lecithin 61 mg/mL (100× cmc), aqueous with cosolvent or surfactant or cyclodextrin, Lecithin, 61 mg/mL (100× cmc), read-out: Solubility by HPLC): 53 µg/mL (≈ 116 µM)
- solubility ([4]; Miglyol 810, oil or lipid, Miglyol 810, read-out: Solubility by HPLC): 53 µg/mL (≈ 116 µM)
- solubility ([4]; Miglyol 812, oil or lipid, Miglyol 812, read-out: Solubility by HPLC): 52 µg/mL (≈ 114 µM)
- solubility ([4]; Oleic Acid, oil or lipid, Oleic Acid, read-out: Solubility by HPLC): 390 µg/mL (≈ 854 µM)
- solubility ([4]; PEG 400, organic solvent or mixture, PEG 400, read-out: Solubility by HPLC): 2000 µg/mL (≈ 4380 µM)
- solubility ([4]; Peceol, oil or lipid, Peceol, read-out: Solubility by HPLC): 1300 µg/mL (≈ 2850 µM)
- solubility ([4]; Plurol Oleique CC 497, oil or lipid, Plurol Oleique CC 497, read-out: Solubility by HPLC): 1200 µg/mL (≈ 2630 µM)
- solubility ([4]; Sodium Lauryl Sulfate 8.2 mM (cmc), aqueous with cosolvent or surfactant or cyclodextrin, Sodium Lauryl Sulfate, 8.2 mM (cmc), read-out: Solubility by HPLC): 150 µg/mL (≈ 329 µM)
- solubility ([4]; Sodium Lauryl Sulfate 41 mM (5× cmc), aqueous with cosolvent or surfactant or cyclodextrin, Sodium Lauryl Sulfate, 41 mM (5× cmc), read-out: Solubility by HPLC): 1600 µg/mL (≈ 3510 µM)
- solubility ([4]; Sodium Lauryl Sulfate 82 mM (10× cmc), aqueous with cosolvent or surfactant or cyclodextrin, Sodium Lauryl Sulfate, 82 mM (10× cmc), read-out: Solubility by HPLC): 2400 µg/mL (≈ 5260 µM)
- Solubility by HPLC ([4]; Sodium Lauryl Sulfate, 0.82M (100× cmc)): 17000 µg/mL and 19000 µg/mL
- solubility ([4]; Soybean Oil, oil or lipid, Soybean Oil, read-out: Solubility by HPLC): 30 µg/mL (≈ 65.7 µM)
- solubility ([4]; Transcutol HP, organic solvent or mixture, Transcutol HP, read-out: Solubility by HPLC): 4700 µg/mL (≈ 10300 µM)
- solubility ([4]; Triacetic, organic solvent or mixture, Triacetic, read-out: Solubility by HPLC): 430 µg/mL (≈ 942 µM)
- solubility ([4]; Tween 80, 1.2 mM (100× CMC), aqueous with cosolvent or surfactant or cyclodextrin, Tween 80, 1.2 mM (100× cmc), read-out: Solubility by HPLC): 560 µg/mL (≈ 1230 µM)
- solubility ([4]; Vitamin E TPGS 0.2 wt % (10× cmc), aqueous with cosolvent or surfactant or cyclodextrin, Vitamin E TPGS, 0.2 wt % (10× cmc), read-out: Solubility by HPLC): 20 µg/mL (≈ 43.8 µM)
- solubility ([4]; Vitamin E TPGS 2 wt % (100× cmc), aqueous with cosolvent or surfactant or cyclodextrin, Vitamin E TPGS, 2 wt % (100× cmc), read-out: Solubility by HPLC): 40 µg/mL (≈ 87.6 µM)
- solubility ([4]; Water, pH 8.99, water, Water, Final pH: 8.99, read-out: Solubility by HPLC): 1 µg/mL (≈ 2.19 µM)
- solubility ([4]; ethanol, organic solvent or mixture, Ethanol, read-out: Solubility by HPLC): 3100 µg/mL (≈ 6790 µM)
- solubility ([4]; organic solvent or mixture, EtOH, PEG 400, Propylene glycol, Capmul MCM NF, Kolliphor EL, Capmul MCM EP, Plurol Oleique CC 497, Peceol, Labrasol, SLS at 5× and 10×CMC, Transcutol HP, read-out: solubility of the API): 1000 to 5000 µg/mL (≈ 2190 to 11000 µM)
- solubility ([4]; pH 1.0 buffer, pH 1, simulated gastric fluid, pH 1.0 buffer, Final pH: 0.89, read-out: Solubility by HPLC): 1.2 µg/mL (≈ 2.63 µM)
- solubility ([4]; pH 4.5 buffer, pH 4.5, aqueous buffer, pH 4.5 buffer, Final pH: 4.80, read-out: Solubility by HPLC): 1.1 µg/mL (≈ 2.41 µM)
- solubility ([4]; pH 6.8 buffer, pH 6.8, aqueous buffer, pH 6.8 buffer, Final pH: 6.50, read-out: Solubility by HPLC): 0.8 µg/mL (≈ 1.75 µM)
- solubility ([4]; propylene glycol, organic solvent or mixture, Propylene Glycol, read-out: Solubility by HPLC): 2600 µg/mL (≈ 5700 µM)
- solubility ([4]; sodium lauryl sulfate solution, 0.82 M (100× CMC), aqueous with cosolvent or surfactant or cyclodextrin, Sodium Lauryl Sulfate, 0.82M (100× cmc), read-out: Solubility by HPLC): > 10000 µg/mL
- solubility ([4]; sulfobutylether β-cyclodextrin, 40 wt %, aqueous with cosolvent or surfactant or cyclodextrin, Sulfobutylether β-CD, 40 wt %, read-out: Solubility by HPLC): 750 µg/mL (≈ 1640 µM)
SMILES: CC(=O)N1CCc2c(C(=O)N3CCC(c4ccc(F)c(F)c4C(F)(F)F)CC3)n[nH]c2C1 [Compound 1, 1-(3-(4-(3,4-difluoro-2-(trifluoromethyl)phenyl)piperidine-1-carbonyl)-1,4,5,7-tetrahydro-6H-pyrazolo[3,4-c]pyridin-6-yl)ethan-1-one]
